Reference: PubChem BioAssay AID248 (DTP/NCI, 2004)
Several values for one entry are separate records, joined by “and”; a condition that tells them apart may be missing. Equal values may be shown once. Toxic doses and inconclusive results are not listed. Cut-off read from the data, not from the text of the source: active = T/C of 150% or more; inactive = T/C below 125%.

Test system: L1210 leukemia ip in BDF1 mice, survival T/C
Assay: NCI In Vivo Anticancer Drug Screen. Data for tumor model L1210 Leukemia (intraperitoneal) in B6D2F1 (BDF1) mice
Details: endpoint: mean survival time, higher = longer survival
How it was run: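 Mice bearing the transplanted tumor received compound or vehicle. Survival of the treated group was divided by that of the vehicle-treated control group to give the ratio.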

[1] = dose: 25.0 mg/kg/injection, schedule: Q01DX009 (ip), vehicle: Klucel (hydroxypropylcellulose) (HPC)
[2] = dose: 100.0 mg/kg/injection, schedule: Q04DX003 (ip), vehicle: Klucel (hydroxypropylcellulose) (HPC)
[3] = dose: 200.0 mg/kg/injection, schedule: Q04DX003 (ip), vehicle: Klucel (hydroxypropylcellulose) (HPC)
[4] = dose: 12.5 mg/kg/injection, schedule: Q01DX001 (ip), vehicle: Klucel (hydroxypropylcellulose) (HPC)
[5] = dose: 25.0 mg/kg/injection, schedule: Q01DX001 (ip), vehicle: Klucel (hydroxypropylcellulose) (HPC)
[6] = dose: 50.0 mg/kg/injection, schedule: Q01DX001 (ip), vehicle: Klucel (hydroxypropylcellulose) (HPC)
[7] = dose: 75.0 mg/kg/injection, schedule: Q01DX001 (ip), vehicle: carboxymethylcellulose (CMC)
[8] = dose: 100.0 mg/kg/injection, schedule: Q01DX001 (ip), vehicle: Klucel (hydroxypropylcellulose) (HPC)
[9] = dose: 200.0 mg/kg/injection, schedule: Q01DX001 (ip), vehicle: Klucel (hydroxypropylcellulose) (HPC)
[10] = dose: 100.0 mg/kg/injection, schedule: Q01DX009 (ip), vehicle: Klucel (hydroxypropylcellulose) (HPC)
[11] = dose: 200.0 mg/kg/injection, schedule: Q01DX009 (ip), vehicle: Klucel (hydroxypropylcellulose) (HPC)
[12] = dose: 400.0 mg/kg/injection, schedule: Q01DX009 (ip), vehicle: Klucel (hydroxypropylcellulose) (HPC)
[13] = dose: 100.0 mg/kg/injection, schedule: Q01DX009 (ip), vehicle: saline with Tween-80
[14] = dose: 200.0 mg/kg/injection, schedule: Q01DX009 (ip), vehicle: saline with Tween-80
[15] = dose: 400.0 mg/kg/injection, schedule: Q01DX009 (ip), vehicle: saline with Tween-80
[16] = dose: 100.0 mg/kg/injection, schedule: Q01DX001 (ip), vehicle: carboxymethylcellulose (CMC)
[17] = dose: 200.0 mg/kg/injection, schedule: Q01DX001 (ip), vehicle: carboxymethylcellulose (CMC)
[18] = dose: 400.0 mg/kg/injection, schedule: Q04DX003 (ip), vehicle: Klucel (hydroxypropylcellulose) (HPC)
[19] = dose: 100.0 mg/kg/injection, schedule: Q04DX002 (ip), vehicle: Klucel (hydroxypropylcellulose) (HPC)
[20] = dose: 200.0 mg/kg/injection, schedule: Q04DX002 (ip), vehicle: Klucel (hydroxypropylcellulose) (HPC)
[21] = dose: 400.0 mg/kg/injection, schedule: Q04DX002 (ip), vehicle: Klucel (hydroxypropylcellulose) (HPC)
[22] = dose: 25.0 mg/kg/injection, schedule: Q01DX009 (ip), vehicle: saline with Tween-80

Measured: T/C

C/C(=N\N1CCCCCC1)c1ccccc1
inactive: dose: 100.0 mg/kg/injection, schedule: Q01DX009 (sc), vehicle: olive oil, sesame oil, peanut oil 95 % of control | dose: 100.0 mg/kg/injection, schedule: Q04DX003 (sc), vehicle: olive oil, sesame oil, peanut oil 112 % of control | dose: 200.0 mg/kg/injection, schedule: Q01DX009 (sc), vehicle: olive oil, sesame oil, peanut oil 98 % of control | dose: 200.0 mg/kg/injection, schedule: Q04DX003 (sc), vehicle: olive oil, sesame oil, peanut oil 105 % of control | dose: 400.0 mg/kg/injection, schedule: Q01DX009 (sc), vehicle: olive oil, sesame oil, peanut oil 97 % of control | dose: 400.0 mg/kg/injection, schedule: Q04DX003 (sc), vehicle: olive oil, sesame oil, peanut oil 105 % of control

CN(C)c1ccc(/C=C/c2cnccn2)cc1
inactive: [1] 107 % of control | [2] 94 % of control | [3] 93 % of control

CNC1=CC(=O)C1(F)F
inactive: [4] 101 % of control | [5] 108 % of control | [6] 108 % of control

CC(=O)Nc1c(Cl)c(Cl)c2[nH]c(=O)c3cc(Cl)ccc3c2c1Cl
inactive: [7] 87 % of control | dose: 150.0 mg/kg/injection, schedule: Q01DX001 (ip), vehicle: carboxymethylcellulose (CMC) 95 % of control | dose: 300.0 mg/kg/injection, schedule: Q01DX001 (ip), vehicle: carboxymethylcellulose (CMC) 88 % of control

CCOC(=O)NN(C)c1c(C)cccc1C
inactive: [6] 96 % of control | [8] 106 % of control | [9] 104 % of control

CCC(=O)Nc1ccc(Cl)cc1OC
inactive: [10] 100 % of control | [11] 102 % of control | [12] 100 % of control

Cc1ccc(NC(=O)OC(C)C)c(C)c1
inactive: [10] 100 % of control | [11] 100 % of control | [12] 96 % of control

CCCCCCCCCCCC#N
inactive: [13] 107 % of control | [14] 96 % of control | [15] 90 % of control

CCCCCSP(=S)(SCCCCC)c1ccccc1
inactive: dose: 100.0 mg/kg/injection, schedule: Q04DX002 (ip), vehicle: saline with Tween-80 99 % of control | dose: 200.0 mg/kg/injection, schedule: Q04DX002 (ip), vehicle: saline with Tween-80 105 % of control | dose: 400.0 mg/kg/injection, schedule: Q04DX002 (ip), vehicle: saline with Tween-80 99 % of control

CN(C)c1ncnc2[nH]cc([N+](=O)[O-])c12
inactive: [16] 93 % of control | [17] 93 % of control

COc1ccc(C(C)(C)CC(=O)O)cc1OC
inactive: dose: 100.0 mg/kg/injection, schedule: Q01DX001 (ip), vehicle: saline with Tween-80 92 % of control | dose: 200.0 mg/kg/injection, schedule: Q01DX001 (ip), vehicle: saline with Tween-80 92 % of control | dose: 400.0 mg/kg/injection, schedule: Q01DX001 (ip), vehicle: saline with Tween-80 95 % of control

CC(=O)Nc1ccc(Cl)c(Cl)c1
inactive: [2] 107 % of control | dose: 100.0 mg/kg/injection, schedule: Q04DX003 (ip), vehicle: other 101 % of control | [3] 114 % of control | dose: 200.0 mg/kg/injection, schedule: Q04DX003 (ip), vehicle: other 98 % of control | [18] 87 % of control | dose: 400.0 mg/kg/injection, schedule: Q04DX003 (ip), vehicle: other 101 % of control

CCOC(=O)c1ccc(N)c(C(O)(C(F)(F)F)C(F)(F)F)c1
inactive: [13] 106 % of control | [14] 95 % of control | [15] 104 % of control

COC(=O)/C(=C\c1ccc(OC)cc1)CC(=O)O
inactive: [8] 96 % of control | [10] 101 % of control and 104 % of control | [19] 98 % of control and 100 % of control | [2] 90 % of control | [9] 93 % of control | [11] 95 % of control and 101 % of control | [20] 95 % of control and 113 % of control | [3] 97 % of control | dose: 400.0 mg/kg/injection, schedule: Q01DX001 (ip), vehicle: Klucel (hydroxypropylcellulose) (HPC) 104 % of control | [12] 93 % of control and 108 % of control | [21] 102 % of control and 103 % of control | [18] 97 % of control

O=C(O)CSCc1ccc([N+](=O)[O-])cc1
inactive: [2] 100 % of control | [3] 100 % of control | [18] 100 % of control

OCCCCCn1cnc2c(=S)nc[nH]c21
inactive: [10] 101 % of control | [2] 93 % of control | [11] 101 % of control | [3] 98 % of control | [12] 102 % of control | [18] 95 % of control

Cc1cc(C)c(NC(=O)c2cccc([N+](=O)[O-])c2C(=O)O)cc1C
inactive: [19] 105 % of control | [20] 96 % of control | [21] 108 % of control

C1=CC2(CCCC1)OCCO2
inactive: dose: 100.0 mg/kg/injection, schedule: Q04DX003 (ip), vehicle: saline with Tween-80 100 % of control | dose: 200.0 mg/kg/injection, schedule: Q04DX003 (ip), vehicle: saline with Tween-80 97 % of control | dose: 400.0 mg/kg/injection, schedule: Q04DX003 (ip), vehicle: saline with Tween-80 108 % of control

CC1CCC(C2=CSC3CCCCC3N2)CC1 (stereo unspecified)
inactive: dose: 100.0 mg/kg/injection, schedule: Q04DX002 (ip), vehicle: other 105 % of control | dose: 200.0 mg/kg/injection, schedule: Q04DX002 (ip), vehicle: other 94 % of control | dose: 400.0 mg/kg/injection, schedule: Q04DX002 (ip), vehicle: other 94 % of control

CC(=O)OCC1OC(S[As](C)SC2OC(COC(C)=O)C(OC(C)=O)C(OC(C)=O)C2OC(C)=O)C(OC(C)=O)C(OC(C)=O)C1OC(C)=O (stereo unspecified)
inactive: dose: 6.25 mg/kg/injection, schedule: Q01DX009 (ip), vehicle: saline with Tween-80 101 % of control | dose: 12.5 mg/kg/injection, schedule: Q01DX009 (ip), vehicle: saline with Tween-80 116 % of control | [22] 116 % of control

C/C=C/S(=O)(=O)c1ccccc1
inactive: [7] 100 % of control

COc1cccc(OC#N)c1OC
inactive: [4] 93 % of control | dose: 12.5 mg/kg/injection, schedule: Q01DX009 (ip), vehicle: Klucel (hydroxypropylcellulose) (HPC) 95 % of control | dose: 12.5 mg/kg/injection, schedule: Q04DX003 (ip), vehicle: Klucel (hydroxypropylcellulose) (HPC) 96 % of control | [5] 98 % of control | [1] 97 % of control | dose: 25.0 mg/kg/injection, schedule: Q04DX003 (ip), vehicle: Klucel (hydroxypropylcellulose) (HPC) 104 % of control | [6] 93 % of control | dose: 50.0 mg/kg/injection, schedule: Q04DX003 (ip), vehicle: Klucel (hydroxypropylcellulose) (HPC) 94 % of control

COc1ccc(/C=N/NC(=O)C(O)c2ccccc2)cc1 (stereo unspecified)
inactive: [10] 92 % of control | [11] 99 % of control | [12] 86 % of control

NCC1OC(OC2C(N)CC(N)C(O)C2O)C(NC(=O)c2ccccc2)C(O)C1O (stereo unspecified)
inactive: [2] 91 % of control | [3] 96 % of control | [18] 91 % of control

Cc1ccc(C[As+](c2ccccc2)(c2ccccc2)c2ccccc2)cc1
inactive: dose: 10.0 mg/kg/injection, schedule: Q01DX001 (ip), vehicle: saline 97 % of control | dose: 20.0 mg/kg/injection, schedule: Q01DX001 (ip), vehicle: saline 96 % of control | dose: 40.0 mg/kg/injection, schedule: Q01DX001 (ip), vehicle: saline 96 % of control

O=C(/C=C(\Cl)c1ccc2c(c1)OCO2)OC/C=C\c1ccc2c(c1)OCO2
inactive: dose: 50.0 mg/kg/injection, schedule: Q01DX009 (ip), vehicle: Klucel (hydroxypropylcellulose) (HPC) 94 % of control | [8] 93 % of control | [10] 92 % of control | [9] 88 % of control | [11] 92 % of control

COc1ccc(C2CCCCC2OS(C)(=O)=O)cc1 (stereo unspecified)
inactive: [16] 97 % of control | [17] 106 % of control | dose: 400.0 mg/kg/injection, schedule: Q01DX001 (ip), vehicle: carboxymethylcellulose (CMC) 95 % of control

CNC(Cc1ccccc1)c1ccccc1 (stereo unspecified)
inactive: [22] 94 % of control | dose: 50.0 mg/kg/injection, schedule: Q01DX009 (ip), vehicle: saline with Tween-80 101 % of control | [13] 99 % of control
